Measurements reported in ChEMBL document CHEMBL1201861, “Genomics of Drug Sensitity in Cancer screening data, Wellcome Trust Sanger Institute”.

What was measured:
Test in all cases: cells
DMS-114 = format: functional, cell-based, Homo sapiens; conditions: Homo sapiens, DMS-114
QIMR-WIL = format: functional, cell-based, Homo sapiens; conditions: Homo sapiens, QIMR-WIL;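 also: growth inhibition of QIMR-WIL cells, read out with a cell viability assay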
Description: SANGER: Inhibition of human QIMR-WIL cell growth in a cell viability assay.

SK-MEL-2 = format: functional, cell-based, Homo sapiens; conditions: Homo sapiens, SK-MEL-2;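 also: growth inhibition of human SK-MEL-2 cells measured with a cell viability assay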
Description: SANGER: Inhibition of human SK-MEL-2 cell growth in a cell viability assay.

LAMA-84 = format: functional, cell-based, Homo sapiens; conditions: Homo sapiens, LAMA-84;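 also: growth inhibition of LAMA-84 cells, read out with a cell viability assay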
Description: SANGER: Inhibition of human LAMA-84 cell growth in a cell viability assay.

L-428 = format: functional, cell-based, Homo sapiens; conditions: Homo sapiens, L-428
Description: SANGER: Inhibition of human L-428 cell growth in a cell viability assay.

DSH1 = format: functional, cell-based, Homo sapiens; conditions: Homo sapiens, DSH1;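 also: growth inhibition of human DSH1 cells, measured with a cell viability readout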
Description: SANGER: Inhibition of human DSH1 cell growth in a cell viability assay.

A3-KAW = format: functional, cell-based, Homo sapiens; conditions: Homo sapiens, A3-KAW;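 also: growth inhibition of human A3-KAW cells, read out with a cell viability assay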
Description: SANGER: Inhibition of human A3-KAW cell growth in a cell viability assay.

LOX IMVI = format: functional, cell-based, Homo sapiens; conditions: Homo sapiens, LOX IMVI
Description: SANGER: Inhibition of human LOXIMVI cell growth in a cell viability assay.

KINGS-1 = format: functional, cell-based, Homo sapiens; conditions: Homo sapiens, KINGS-1;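 also: cell viability assay measuring suppression of KINGS-1 cell growth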
Description: SANGER: Inhibition of human KINGS-1 cell growth in a cell viability assay.

SBC-1 = format: functional, cell-based, Homo sapiens; conditions: Homo sapiens, SBC-1;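 also: cell viability assay measuring growth inhibition of the SBC-1 cell line, IC50 being the concentration that halves growth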
Description: SANGER: Inhibition of human SBC-1 cell growth in a cell viability assay.

GR-ST = format: functional, cell-based, Homo sapiens; conditions: Homo sapiens, GR-ST
Description: SANGER: Inhibition of human GR-ST cell growth in a cell viability assay.

NCI-H209 = format: functional, cell-based, Homo sapiens; conditions: Homo sapiens, NCI-H209;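 also: growth inhibition of human NCI-H209 cells, measured by a cell viability assay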
Description: SANGER: Inhibition of human NCI-H209 cell growth in a cell viability assay.

CW-2 = format: functional, cell-based, Homo sapiens; conditions: Homo sapiens, CW-2;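 also: growth inhibition of CW-2 cells, read out by a cell viability assay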
Description: SANGER: Inhibition of human CW-2 cell growth in a cell viability assay.

NCI-H510A = format: functional, cell-based, Homo sapiens; conditions: Homo sapiens, NCI-H510A;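 also: growth inhibition of NCI-H510A cells, read out with a cell viability assay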
Description: SANGER: Inhibition of human NCI-H510A cell growth in a cell viability assay.

BB30-HNC = format: functional, cell-based, Homo sapiens; conditions: Homo sapiens, BB30-HNC;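 also: growth inhibition of the cultured cell line, read out by a cell viability assay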
Description: SANGER: Inhibition of human BB30-HNC cell growth in a cell viability assay.

NCI-H1299 = format: functional, cell-based, Homo sapiens; conditions: Homo sapiens, NCI-H1299;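 also: growth inhibition of human NCI-H1299 cells, read out by a cell viability assay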
Description: SANGER: Inhibition of human NCI-H1299 cell growth in a cell viability assay.

Lu-65 = format: functional, cell-based, Homo sapiens; conditions: Homo sapiens, Lu-65;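 also: growth inhibition of Lu-65 cancer cells, read out by a cell viability assay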
Description: SANGER: Inhibition of human LU-65 cell growth in a cell viability assay.

Ramos-2G6-4C10 = format: functional, cell-based, Homo sapiens; conditions: Homo sapiens, Ramos-2G6-4C10;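 also: growth inhibition of the cell line, measured by a cell viability read-out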
Description: SANGER: Inhibition of human Ramos-2G6-4C10 cell growth in a cell viability assay.

OVCAR-4 = format: functional, cell-based, Homo sapiens; conditions: Homo sapiens, OVCAR-4;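 also: growth inhibition of human OVCAR-4 cells, measured with a cell viability assay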
Description: SANGER: Inhibition of human OVCAR-4 cell growth in a cell viability assay.

GB-1 = format: functional, cell-based, Homo sapiens; conditions: Homo sapiens, GB-1;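 also: growth of GB-1 cells judged by a viability assay, IC50 marks the concentration inhibiting growth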
Description: SANGER: Inhibition of human GB-1 cell growth in a cell viability assay.

A498 = format: functional, cell-based, Homo sapiens; conditions: Homo sapiens, A498;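 also: growth inhibition of human A498 cells, read out with a cell viability assay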
Description: SANGER: Inhibition of human A498 cell growth in a cell viability assay.

GCIY = format: functional, cell-based, Homo sapiens; conditions: Homo sapiens, GCIY;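 also: growth inhibition of the human GCIY cell line, read out by a cell viability assay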
Description: SANGER: Inhibition of human GCIY cell growth in a cell viability assay.

KARPAS-45 = format: functional, cell-based, Homo sapiens; conditions: Homo sapiens, KARPAS-45;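 also: inhibition of cell line growth, read out through a viability assay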
Description: SANGER: Inhibition of human KARPAS-45 cell growth in a cell viability assay.

GI-1 = format: functional, cell-based, Homo sapiens; conditions: Homo sapiens, GI-1;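 also: growth inhibition of human GI-1 cells, measured with a cell viability readout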
Description: SANGER: Inhibition of human GI-1 cell growth in a cell viability assay.

OCI-AML2 = format: functional, cell-based, Homo sapiens; conditions: Homo sapiens, OCI-AML2;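 also: growth inhibition of OCI-AML2 cells, read out with a cell viability assay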
Description: SANGER: Inhibition of human OCI-AML2 cell growth in a cell viability assay.

KG-1 = format: functional, cell-based, Homo sapiens; conditions: Homo sapiens, KG-1;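 also: growth inhibition of KG-1 cells, read out by a cell viability assay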
Description: SANGER: Inhibition of human KG-1 cell growth in a cell viability assay.

SF-539 = format: functional, cell-based, Homo sapiens; conditions: Homo sapiens, SF-539;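 also: Read-out is a cell viability assay, with IC50 reflecting inhibition of cell growth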
Description: SANGER: Inhibition of human SF539 cell growth in a cell viability assay.

SK-NEP-1 = format: functional, cell-based, Homo sapiens; conditions: Homo sapiens, SK-NEP-1;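 also: growth inhibition of human SK-NEP-1 cells, read out by a cell viability assay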
Description: SANGER: Inhibition of human SK-NEP-1 cell growth in a cell viability assay.

U-266 = format: functional, cell-based, Homo sapiens; conditions: Homo sapiens, U-266
Description: SANGER: Inhibition of human U-266 cell growth in a cell viability assay.

TE-1 = format: functional, cell-based, Homo sapiens; conditions: Homo sapiens, TE-1;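 also: growth inhibition of the human TE-1 cell line, read out with a cell viability assay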
Description: SANGER: Inhibition of human TE-1 cell growth in a cell viability assay.

UACC-257 = format: functional, cell-based, Homo sapiens; conditions: Homo sapiens, UACC-257
Description: SANGER: Inhibition of human UACC-257 cell growth in a cell viability assay.

SHP77 = format: functional, cell-based, Homo sapiens, SHP-77; conditions: Homo sapiens, SHP77;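 also: growth inhibition of human SHP-77 cells measured by a cell viability assay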
Description: SANGER: Inhibition of human SHP-77 cell growth in a cell viability assay.

TGBC1TKB = format: functional, cell-based, Homo sapiens; conditions: Homo sapiens, TGBC1TKB;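 also: growth inhibition of TGBC1TKB cells, read out by a cell viability assay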
Description: SANGER: Inhibition of human TGBC1TKB cell growth in a cell viability assay.

MN-60 = format: functional, cell-based, Homo sapiens; conditions: Homo sapiens, MN-60;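 also: growth inhibition of the MN-60 cell line, determined with a cell viability assay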
Description: SANGER: Inhibition of human MN-60 cell growth in a cell viability assay.

DU-4475 = format: functional, cell-based, Homo sapiens; conditions: Homo sapiens, DU-4475
Description: SANGER: Inhibition of human DU-4475 cell growth in a cell viability assay.

GOTO = format: functional, cell-based, Homo sapiens; conditions: Homo sapiens, GOTO;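 also: growth inhibition of GOTO cells, read out by a cell viability assay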
Description: SANGER: Inhibition of human GOTO cell growth in a cell viability assay.

MLMA = format: functional, cell-based, Homo sapiens; conditions: Homo sapiens, MLMA;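 also: growth inhibition of MLMA cells (human), determined through a cell viability readout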
Description: SANGER: Inhibition of human MLMA cell growth in a cell viability assay.

IA-LM = format: functional, cell-based, Homo sapiens; conditions: Homo sapiens, IA-LM;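 also: cell viability assay measuring growth inhibition of human IA-LM cells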
Description: SANGER: Inhibition of human IA-LM cell growth in a cell viability assay.

EW-13 = format: functional, cell-based, Homo sapiens; conditions: Homo sapiens, EW-13;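 also: growth inhibition of EW-13 cells, read out with a cell viability assay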
Description: SANGER: Inhibition of human EW-13 cell growth in a cell viability assay.

MZ1-PC = format: functional, cell-based, Homo sapiens; conditions: Homo sapiens, MZ1-PC;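 also: cell viability assay measuring growth inhibition of human MZ1-PC cells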
Description: SANGER: Inhibition of human MZ1-PC cell growth in a cell viability assay.

EW-1 = format: functional, cell-based, Homo sapiens; conditions: Homo sapiens, EW-1
Description: SANGER: Inhibition of human EW-1 cell growth in a cell viability assay.

NCI-H82 = format: functional, cell-based, Homo sapiens; conditions: Homo sapiens, NCI-H82;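 also: growth inhibition of NCI-H82 cells, measured with a cell viability readout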
Description: SANGER: Inhibition of human NCI-H82 cell growth in a cell viability assay.

NB13 = format: functional, cell-based, Homo sapiens; conditions: Homo sapiens, NB13;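 also: cell viability readout measuring growth inhibition of human NB13 cells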
Description: SANGER: Inhibition of human NB13 cell growth in a cell viability assay.

NCI-H1650 = format: functional, cell-based, Homo sapiens; conditions: Homo sapiens, NCI-H1650;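 also: growth inhibition of human NCI-H1650 cells measured by a cell viability assay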
Description: SANGER: Inhibition of human NCI-H1650 cell growth in a cell viability assay.

HCE-T = format: functional, cell-based, Homo sapiens; conditions: Homo sapiens, HCE-T;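 also: cell viability assay read-out, reporting inhibition of HCE-T cell growth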
Description: SANGER: Inhibition of human HCE-T cell growth in a cell viability assay.

no-10 = format: functional, cell-based, Homo sapiens; conditions: Homo sapiens;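 also: growth inhibition of no-10 cells, read out with a cell viability assay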
Description: SANGER: Inhibition of human no-10 cell growth in a cell viability assay.

NH-12 = format: functional, cell-based, Homo sapiens; conditions: Homo sapiens, NH-12;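 also: growth inhibition of NH-12 cells, read out with a cell viability assay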
Description: SANGER: Inhibition of human NH-12 cell growth in a cell viability assay.

DEL = format: functional, cell-based, Homo sapiens; conditions: Homo sapiens, DEL;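 also: growth inhibition of the human DEL cell line, read out with a cell viability assay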
Description: SANGER: Inhibition of human DEL cell growth in a cell viability assay.

CN(C)C(=N)NC(=N)N [METFORMIN]
IC50 (DMS-114): > 20000 µM | IC50 (QIMR-WIL): > 20000 µM | IC50 (SK-MEL-2): > 20000 µM | IC50 (LAMA-84): > 20000 µM | IC50 (L-428): 7760 µM | IC50 (DSH1): > 20000 µM | IC50 (A3-KAW): > 20000 µM | IC50 (LOX IMVI): 10700 µM | IC50 (KINGS-1): > 20000 µM | IC50 (SBC-1): 6930 µM | IC50 (GR-ST): > 20000 µM | IC50 (NCI-H209): 925 µM | IC50 (CW-2): 4120 µM | IC50 (NCI-H510A): 1310 µM | IC50 (BB30-HNC): 10800 µM | IC50 (NCI-H1299): 10100 µM | IC50 (Lu-65): 511 µM | IC50 (Ramos-2G6-4C10): > 20000 µM | IC50 (OVCAR-4): 4430 µM | IC50 (GB-1): > 20000 µM | IC50 (A498): > 20000 µM | IC50 (GCIY): > 20000 µM | IC50 (KARPAS-45): 3050 µM | IC50 (GI-1): > 20000 µM | IC50 (OCI-AML2): > 20000 µM | IC50 (KG-1): 16800 µM | IC50 (SF-539): > 20000 µM | IC50 (SK-NEP-1): 15000 µM | IC50 (U-266): > 20000 µM | IC50 (TE-1): > 20000 µM | IC50 (UACC-257): 13900 µM | IC50 (SHP77): > 20000 µM | IC50 (TGBC1TKB): > 20000 µM | IC50 (MN-60): > 20000 µM | IC50 (DU-4475): 3840 µM | IC50 (GOTO): > 20000 µM | IC50 (MLMA): > 20000 µM | IC50 (IA-LM): > 20000 µM

C=C(c1ccc(C(=O)O)cc1)c1cc2c(cc1C)C(C)(C)CCC2(C)C [BEXAROTENE]
IC50 (DMS-114): > 8 µM | IC50 (QIMR-WIL): > 8 µM | IC50 (SK-MEL-2): > 8 µM | IC50 (LAMA-84): > 8 µM | IC50 (L-428): > 8 µM | IC50 (EW-13): 0.485 µM | IC50 (DSH1): > 8 µM | IC50 (MZ1-PC): > 8 µM | IC50 (A3-KAW): > 8 µM | IC50 (LOX IMVI): > 8 µM | IC50 (KINGS-1): > 8 µM | IC50 (SBC-1): > 8 µM | IC50 (GR-ST): > 8 µM | IC50 (NCI-H209): > 8 µM | IC50 (CW-2): > 8 µM | IC50 (NCI-H510A): > 8 µM | IC50 (BB30-HNC): > 8 µM | IC50 (NCI-H1299): > 8 µM | IC50 (Lu-65): > 8 µM | IC50 (EW-1): > 8 µM | IC50 (Ramos-2G6-4C10): > 8 µM | IC50 (OVCAR-4): > 8 µM | IC50 (GB-1): > 8 µM | IC50 (A498): > 8 µM | IC50 (NCI-H82): > 8 µM | IC50 (GCIY): > 8 µM | IC50 (NB13): > 8 µM | IC50 (NCI-H1650): > 8 µM | IC50 (HCE-T): > 8 µM | IC50 (no-10): > 8 µM | IC50 (GI-1): > 8 µM | IC50 (OCI-AML2): > 8 µM | IC50 (KG-1): > 8 µM | IC50 (SF-539): > 8 µM | IC50 (NH-12): > 8 µM | IC50 (SK-NEP-1): > 8 µM | IC50 (U-266): > 8 µM | IC50 (TE-1): > 8 µM | IC50 (UACC-257): > 8 µM | IC50 (SHP77): > 8 µM | IC50 (TGBC1TKB): > 8 µM | IC50 (MN-60): > 8 µM | IC50 (DU-4475): > 8 µM | IC50 (GOTO): > 8 µM | IC50 (DEL): > 8 µM | IC50 (MLMA): > 8 µM | IC50 (IA-LM): 7.36 µM

Nc1ccn([C@@H]2O[C@H](CO)[C@@H](O)C2(F)F)c(=O)n1 [GEMCITABINE]
IC50 (DMS-114): > 1.02 µM | IC50 (QIMR-WIL): < 0.004 µM | IC50 (SK-MEL-2): > 1.02 µM | IC50 (LAMA-84): 0.115 µM | IC50 (L-428): 0.0236 µM | IC50 (EW-13): < 0.004 µM | IC50 (DSH1): 0.0965 µM | IC50 (MZ1-PC): 0.254 µM | IC50 (A3-KAW): < 0.004 µM | IC50 (LOX IMVI): 0.0016 µM | IC50 (KINGS-1): > 1.02 µM | IC50 (SBC-1): 0.166 µM | IC50 (GR-ST): < 0.004 µM | IC50 (NCI-H209): 0.0521 µM | IC50 (CW-2): > 1.02 µM | IC50 (NCI-H510A): 0.0333 µM | IC50 (BB30-HNC): < 0.004 µM | IC50 (NCI-H1299): < 0.004 µM | IC50 (Lu-65): 0.304 µM | IC50 (EW-1): 0.00222 µM | IC50 (Ramos-2G6-4C10): 0.661 µM | IC50 (OVCAR-4): 0.625 µM | IC50 (GB-1): 0.00584 µM | IC50 (A498): > 1.02 µM | IC50 (NCI-H82): 0.373 µM | IC50 (GCIY): 0.0927 µM | IC50 (KARPAS-45): > 1.02 µM | IC50 (NB13): 0.0382 µM | IC50 (NCI-H1650): 0.0254 µM | IC50 (HCE-T): 0.0124 µM | IC50 (no-10): 0.174 µM | IC50 (GI-1): 0.00276 µM | IC50 (OCI-AML2): < 0.004 µM | IC50 (KG-1): 0.0622 µM | IC50 (SF-539): 0.00102 µM | IC50 (NH-12): 0.0255 µM | IC50 (SK-NEP-1): 0.0229 µM | IC50 (U-266): 0.608 µM | IC50 (TE-1): > 1.02 µM | IC50 (UACC-257): 0.364 µM | IC50 (SHP77): > 1.02 µM | IC50 (TGBC1TKB): > 1.02 µM | IC50 (MN-60): > 1.02 µM | IC50 (DU-4475): 0.00314 µM | IC50 (GOTO): > 1.02 µM | IC50 (DEL): < 0.004 µM | IC50 (MLMA): 0.272 µM | IC50 (IA-LM): 0.00591 µM
